Measurements from patent US9102648B1, “Bioavailable diacylhydrazine ligands for modulating the expression of exogenous genes via an ecdysone receptor complex” (Intrexon Corporation, priority 2003, dated 2015).
In brackets after ≈: the same amount, converted by molar mass. Read-outs that look alike come from different tables or passages of the source.

Columns and labels:
[1] = molecular target: GAL4 DBD (1-147)-CfEcR(DEF)/VP16AD-βRXREF-LmUSPEF (Choristoneura fumiferana, UniProt O77240); test: cell-based; conditions: for 27-63 assay Rel Max FI: maximum fold induction at any concentration relative to that of GS-E ligand, CHO 27-63 cells; for fold induction at 3.3 µM: read-out: Fold Induction, 27-63 Assay, 3.3 uM; for fold induction at 33 µM: read-out: Fold Induction, 27-63 Assay, 33 uM
[2] = Aqueous equilibrium solubility in pH 7.4 buffer; conditions: for solubility: pH 7.4 aqueous phosphate buffer, pH 7.4, aqueous buffer, thermodynamic from solid
Description: Equilibrium solubility was measured in pH 7.4 aqueous buffer. The buffer was prepared by adjusting the pH of a 0.07 M solution of NaH2PO4 to pH 7.4 with 10 N NaOH. […] At least 1 mg of powder was combined with 1 mL of buffer to make >1 mg/mL mixture. These samples were shaken for ≧2 hours and left to stand overnight at room temperature. The samples were then filtered through a 0.45-μm Nylon syringe filter that was first saturated with the sample. The filtrate was sampled twice, consecutively. The filtrate was assayed by HPLC against standards prepared in methanol.

[3] = Determination of LC Log P (experimental); assay type: physicochemical; conditions: for logP: diacylhydrazine log P standards (log P known experimentally); for chromatographic logP: from LC retention time against log P standards, read-out: LC LogP (exp)
Description: Liquid chromatography retention times (RT) are measured for each substance using the conditions described below. A linear equation is derived relating RT to log P is developed from the data for the log P standards. The log P for the test compound is calculated from the log P/retention time equation.

[4] = test system: mutated ecdysone receptor-based gene switch; test: In vivo SEAP induction, ligand by IP injection; parameters: species or system C57BL/6 mouse; conditions: for Secreted Alkaline Phosphatase (percentage of GS ™-E ligand induction) Day 2 / Secreted Alkaline Phosphatase (percentage of GS ™-E ligand induction) Day 3 / Secreted Alkaline Phosphatase (percentage of GS ™-E ligand induction) Day 11: mouse serum; for Secreted Alkaline Phosphatase (percentage of GS ™-E ligand induction) Day 2: IP 2.6 μmol ligand 3 days after electroporation, day 2 after ligand; for Secreted Alkaline Phosphatase (percentage of GS ™-E ligand induction) Day 3 / Secreted Alkaline Phosphatase (percentage of GS ™-E ligand induction) Day 11: IP 2.6 μmol ligand; for Secreted Alkaline Phosphatase (percentage of GS ™-E ligand induction) Day 3: day 3 after ligand; for Secreted Alkaline Phosphatase (percentage of GS ™-E ligand induction) Day 11: day 11 after ligand
Method in brief: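 Gene switch plasmids (receptor under CMV promoter) electroporated into quadriceps of C57BL/6 mice; 3 days later ligand given IP at 2.6 μmol or 26 nmol in 50 μL DMSO per mouse. Serum SEAP measured by chemiluminescence 2-11 days after dosing, averaged over four animals, expressed as % of GS™-E ligand induction.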

Compound	EC50 [1] [nM]	27-63 assay Rel Max FI [1]	fold induction at 3.3 µM [1]	fold induction at 33 µM [1]	solubility [2] [µg/mL]	logP [3]	Secreted Alkaline Phosphatase (percentage of GS ™-E ligand induction) Day 2 [4]	Secreted Alkaline Phosphatase (percentage of GS ™-E ligand induction) Day 3 [4]	chromatographic logP [3]	Secreted Alkaline Phosphatase (percentage of GS ™-E ligand induction) Day 11 [4]	Secreted Alkaline Phosphatase Day 2 ([4]; IP 130 nmol ligand) [ng/ml mouse sera]	Secreted Alkaline Phosphatase Day 3 ([4]; IP 130 nmol ligand)	Secreted Alkaline Phosphatase Day 7 ([4]; IP 130 nmol ligand) [ng/ml mouse sera]	Secreted Alkaline Phosphatase Day 2 ([4]; IP 26 nmol ligand)	Secreted Alkaline Phosphatase Day 3 ([4]; IP 26 nmol ligand)	Secreted Alkaline Phosphatase Day 7 ([4]; IP 26 nmol ligand) [ng/ml mouse sera]	Fold Induction, 27-63 Assay, 3.3 uM ([1]; 3.3 uM ligand, RLU ligand treated / RLU DMSO treated cells, average of two wells)	Fold Induction, 27-63 Assay, 33 uM ([1]; 33 uM ligand, RLU ligand treated / RLU DMSO treated cells, average of two wells)	EC50 ([1]; read-out: 27-63 assay EC50, CHO 27-63 stable cell line, luciferase reporter, average of two wells) [nM]	Solubility pH 7.4 ([2]; pH 7.4 aqueous buffer, room temperature, equilibrium) [mg/mL]
COc1cccc(C(=O)NN(C(=O)c2cc(C)cc(C)c2)C(C)(C)C)c1C [RG-102398]	325	1.017	2880	3180	≤ 0.2	3.7	–	–	–	–	–	–	–	–	–	–	–	–	–	–
COc1ccc(C(=O)N(NC(=O)c2ccc3c(c2C)OCCO3)C(C)(C)C)c(OC)n1 [RG-115517, 2,6-dimethoxy-nicotinic acid N-tert-butyl-N′-(5-methyl-2,3-dihydro-benzo[1,4]dioxine-6-carbonyl)-hydrazide]	–	–	–	–	14 (≈ 32.6 µM)	–	4 percentage of GS ™-E ligand induction	3 percentage of GS ™-E ligand induction	3.15	–	–	–	–	–	–	–	–	–	–	–
CCc1ccc(C(=O)NN(C(=O)c2cc(C)cc(C)c2)C(C)(C)C)c(F)c1 [RG-101523, 3,5-Dimethyl-benzoic acid N-tert-butyl-N′-(4-ethyl-2-fluoro-benzoyl)-hydrazide]	165	0.943	2430	2740	1 (≈ 2.7 µM)	–	85 percentage of GS ™-E ligand induction	79 percentage of GS ™-E ligand induction	4.35	1,116 percentage of GS ™-E ligand induction	–	–	–	–	–	–	–	–	–	–
CCc1c(OC)cccc1C(=O)NN(C(=O)c1cc(C)cc(C)c1)C(C)(C)C [RG-102240, N-(3-methoxy-2-ethylbenzoyl)-N′-(3,5-dimethylbenzoyl)-N′-tert-butylhydrazine]	–	1	–	–	0.7 (≈ 1.83 µM)	4.2	100 percentage of GS ™-E ligand induction	100 percentage of GS ™-E ligand induction	4.2	100 percentage of GS ™-E ligand induction	652	1,780 ng/ml mouse sera	139	–	–	–	–	–	–	–
CCC(N(NC(=O)c1cccc(C)c1C)C(=O)c1cc(C)cc(C)c1)C(C)(C)C (centres unmarked) [RG-103309, 3,5-dimethyl-benzoic acid N′-(2,3-dimethyl-benzoyl)-N-(1-ethyl-2,2-dimethyl-propyl)-hydrazide]	3020	0.975	2540	1200	≤ 0.2	–	251 percentage of GS ™-E ligand induction	298 percentage of GS ™-E ligand induction	–	–	–	–	–	3,428 ng/ml mouse sera	2,800 ng/ml mouse sera	143	–	–	–	–
CCCC(N(NC(=O)c1cccc(OC)c1C)C(=O)c1cc(C)cc(C)c1)C(C)(C)C (centres unmarked) [RG-115823]	–	1.069	–	–	–	–	129 percentage of GS ™-E ligand induction	183 percentage of GS ™-E ligand induction	–	2,652 percentage of GS ™-E ligand induction	–	–	–	3,788 ng/ml mouse sera	2,705 ng/ml mouse sera	373	2093	1025	11	0.0003
